According to PubChem BioAssay (NCI):
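Step 1: Grow cells in 96-well plates. Step 2: Expose to compound for 48 hours at 5 concentrations. Step 3: Interpolate endpoints linearly; if unreached, use highest concentration. GI50 = concentration required for 50% inhibition of growth. Definition used: TGI = concentration required for complete inhibition of growth.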

How the values were obtained:
Experiment in all cases: DTP human tumour cell line panel, 48 h
CAKI-1 renal = test system: CAKI-1 renal
COLO 205 colon = test system: COLO 205 colon
HCT-116 colon = test system: HCT-116 colon
HCT-15 colon = test system: HCT-15 colon
IGROV1 ovarian = test system: IGROV1 ovarian
NCI-H460 lung = test system: NCI-H460 lung
RPMI-8226 leukemia = test system: RPMI-8226 leukemia
SF-295 CNS = test system: SF-295 CNS
SK-MEL-5 melanoma = test system: SK-MEL-5 melanoma
TK-10 renal = test system: TK-10 renal

CC1OC(c2ccc3c(c2O)C(=O)C2=C(C3=O)C3(O)C(=O)CC(C)(O)CC3(O)C=C2)CC(O)C1O (stereo not given)
TGI (CAKI-1 renal): 19.7 µM
TGI (COLO 205 colon): 3.39 µM
TGI (HCT-116 colon): 17.5 µM
TGI (HCT-15 colon): 29.7 µM
TGI (IGROV1 ovarian): 27.9 µM
TGI (NCI-H460 lung): > 64.9 µM
TGI (RPMI-8226 leukemia): 48.1 µM
TGI (SF-295 CNS): 34.2 µM
TGI (SK-MEL-5 melanoma): 22.9 µM
TGI (TK-10 renal): 28.6 µM

Cc1cccc(/C(Br)=C2/OC(=O)c3ccccc32)c1
TGI (CAKI-1 renal): > 100 µM
TGI (COLO 205 colon): > 100 µM
TGI (HCT-116 colon): > 100 µM
TGI (HCT-15 colon): > 100 µM
TGI (IGROV1 ovarian): > 100 µM
TGI (NCI-H460 lung): > 100 µM
TGI (RPMI-8226 leukemia): > 100 µM
TGI (SF-295 CNS): > 100 µM
TGI (SK-MEL-5 melanoma): > 100 µM
TGI (TK-10 renal): > 100 µM

Cc1ccc(NC(=O)/C(Cc2cc(=O)oc3cc(O)ccc23)=N\NC(=O)C[N+](C)(C)C)cc1C
TGI (CAKI-1 renal): > 100 µM
TGI (COLO 205 colon): > 100 µM
TGI (HCT-116 colon): > 100 µM
TGI (HCT-15 colon): > 100 µM
TGI (IGROV1 ovarian): > 100 µM
TGI (NCI-H460 lung): > 100 µM
TGI (RPMI-8226 leukemia): > 100 µM
TGI (SF-295 CNS): > 100 µM
TGI (SK-MEL-5 melanoma): > 100 µM
TGI (TK-10 renal): > 100 µM

CCOC(=O)N1CCN(CCCCCOc2ccccc2C2CCCCC2)CC1
GI50 (CAKI-1 renal): 3.23 µM
TGI (CAKI-1 renal): 12.8 µM
GI50 (COLO 205 colon): 2.32 µM
TGI (COLO 205 colon): 7.14 µM
GI50 (HCT-116 colon): 2.16 µM
TGI (HCT-116 colon): 9.65 µM
GI50 (HCT-15 colon): 3.09 µM
TGI (HCT-15 colon): 12.9 µM
GI50 (IGROV1 ovarian): 10.4 µM
TGI (IGROV1 ovarian): 23.1 µM
GI50 (NCI-H460 lung): 5 µM
TGI (NCI-H460 lung): 17.7 µM
GI50 (RPMI-8226 leukemia): 1.61 µM
TGI (RPMI-8226 leukemia): 4.84 µM
GI50 (SF-295 CNS): 2.65 µM
TGI (SF-295 CNS): 13.9 µM
GI50 (SK-MEL-5 melanoma): 1.52 µM
TGI (SK-MEL-5 melanoma): 3.53 µM
GI50 (TK-10 renal): 7.99 µM
TGI (TK-10 renal): 21.7 µM

CCN(CC)c1ccc(/C=C/C2=[N+](C)c3ccccc3C2(C)C)c(C)c1
GI50 (CAKI-1 renal): 0.926 µM
TGI (CAKI-1 renal): 12 µM
GI50 (COLO 205 colon): 0.0489 µM
TGI (COLO 205 colon): 0.127 µM
GI50 (HCT-116 colon): < 0.02 µM
TGI (HCT-116 colon): 3.82 µM
GI50 (HCT-15 colon): 0.321 µM
TGI (HCT-15 colon): 10.9 µM
GI50 (IGROV1 ovarian): 0.117 µM
TGI (IGROV1 ovarian): 11.4 µM
GI50 (NCI-H460 lung): < 0.0222 µM
TGI (NCI-H460 lung): 1.3 µM
GI50 (RPMI-8226 leukemia): < 0.0164 µM
TGI (RPMI-8226 leukemia): 0.466 µM
GI50 (SF-295 CNS): 0.0358 µM
TGI (SF-295 CNS): 1.49 µM
GI50 (SK-MEL-5 melanoma): 0.0335 µM
TGI (SK-MEL-5 melanoma): 0.0854 µM
GI50 (TK-10 renal): 0.0779 µM
TGI (TK-10 renal): 5.3 µM

CC(C)(C)NCC(COc1ccc([N+](=O)[O-])cc1)OP(c1ccccc1)c1ccccc1 (stereo not given)
TGI (CAKI-1 renal): > 100 µM
TGI (COLO 205 colon): > 100 µM
TGI (HCT-116 colon): > 100 µM
TGI (HCT-15 colon): > 100 µM
TGI (IGROV1 ovarian): > 100 µM
TGI (NCI-H460 lung): > 100 µM
TGI (RPMI-8226 leukemia): 35.3 µM
TGI (SF-295 CNS): > 100 µM
TGI (SK-MEL-5 melanoma): 37.3 µM
TGI (TK-10 renal): > 100 µM

O=C(c1cccs1)C1NO[N+]([O-])=C1c1cccs1 (stereo not given)
GI50 (CAKI-1 renal): 1.61 µM
TGI (CAKI-1 renal): 3.41 µM
GI50 (COLO 205 colon): 1.8 µM
TGI (COLO 205 colon): 4.51 µM
GI50 (HCT-116 colon): 3.03 µM
TGI (HCT-116 colon): 10.2 µM
GI50 (HCT-15 colon): 3.43 µM
TGI (HCT-15 colon): 14.7 µM
GI50 (IGROV1 ovarian): 1.75 µM
TGI (IGROV1 ovarian): 3.72 µM
GI50 (NCI-H460 lung): 5.37 µM
TGI (NCI-H460 lung): 13.1 µM
GI50 (RPMI-8226 leukemia): 2.36 µM
TGI (RPMI-8226 leukemia): 6.2 µM
GI50 (SF-295 CNS): 6.07 µM
TGI (SF-295 CNS): 12.4 µM
GI50 (SK-MEL-5 melanoma): 16.2 µM
TGI (SK-MEL-5 melanoma): 31 µM
GI50 (TK-10 renal): 2.45 µM
TGI (TK-10 renal): 6.27 µM

O=C(NCCN1CCNCC1)c1ccc(Nc2nc3ccccc3c3occc23)cc1
GI50 (CAKI-1 renal): 15.6 µM
TGI (CAKI-1 renal): 32.3 µM
GI50 (COLO 205 colon): 10.6 µM
TGI (COLO 205 colon): > 100 µM
GI50 (HCT-116 colon): 4.11 µM
TGI (HCT-116 colon): 15.8 µM
GI50 (HCT-15 colon): 20 µM
TGI (HCT-15 colon): 37.9 µM
GI50 (IGROV1 ovarian): 1.97 µM
TGI (IGROV1 ovarian): 15.1 µM
GI50 (NCI-H460 lung): 17.4 µM
TGI (NCI-H460 lung): > 100 µM
GI50 (RPMI-8226 leukemia): 18.7 µM
TGI (RPMI-8226 leukemia): 49.1 µM
GI50 (SF-295 CNS): 10.9 µM
TGI (SF-295 CNS): 30.5 µM
GI50 (SK-MEL-5 melanoma): 3.39 µM
TGI (SK-MEL-5 melanoma): 13.7 µM
GI50 (TK-10 renal): 18.3 µM
TGI (TK-10 renal): 35.2 µM
